The test system of one assay is cycD. Kind of assay: Cyclin D mRNA expression in human dermal papilla cells, RT-PCR. The format is cell-based. Particulars: Human dermal papilla cell, 24 hours, read-out: increase in mRNA expression of cycD.
Assay [1] has as its system VEGF. Kind of assay: VEGF mRNA expression in human dermal papilla cells, RT-PCR. The settings on record: Human dermal papilla cell, 24 hours, read-out: increase in mRNA expression of VEGF. The format is cell-based.
The next assay concerns LEF. Kind of assay: LEF mRNA expression in human dermal papilla cells, RT-PCR. The format is cell-based. The settings on record: Human dermal papilla cell, 24 hours, read-out: increase in mRNA expression of LEF.
Assay [2] deals with VEGF. Kind of assay: VEGF concentration in culture medium of human dermal papilla cells, ELISA. In kind it is cell-based. Particulars: Human dermal papilla cell, 24 hours, DMSO negative control, read-out: increase in VEGF concentration.
Assay [3] concerns human dermal papilla cells. Kind of assay: Cell proliferation of human dermal papilla cells, MTT assay. The settings on record: 24 h, read-out: proliferation rate increase.
The next assay deals with IGF. Kind of assay: IGF-1 mRNA expression in human dermal papilla cells, RT-PCR. In kind it is cell-based. Particulars: Human dermal papilla cell, 24 hours, read-out: increase in mRNA expression of IGF.
The test system of a further assay is cAMP. Kind of assay: cAMP concentration in human dermal papilla cells, ELISA. The format is cell-based. The settings on record: Human dermal papilla cell, 24 hours, DMSO negative control, read-out: increase in cAMP concentration.
A further assay relates to IGF-1. Kind of assay: IGF-1 concentration in culture medium of human dermal papilla cells, ELISA. Particulars: Human dermal papilla cell, 24 hours, DMSO negative control, read-out: increase in IGF-1 concentration. The format is cell-based.

SMILES strings stand for the structures.

Consider `COc1ccc2ccccc2c1` [Yarayara, 2-methoxynaphthalene], for which the activation at 20 µM in the assay on cycD was determined as 262%; in the assay with VEGF [1] it was 274%; in the assay on LEF, 340%; in the assay with VEGF [2] it was 30%; in assay [3], 37%; in the assay with IGF it was 270%. Also, the activation at 20 µM amounted to 47% in the assay with cAMP and 22% with IGF-1. Moreover, the activation at 10 µM in assay [3] worked out at 10.6%. Further, in assay [3], the activation at 50 µM amounted to 28%.
